Key:
Type in all cases: in vitro ADME
[1] = Plasma stability assay, CD-1 mouse plasma; conditions: for Plasma Stability 240 min mouse/(rat) [% remain.]: CD-1 mouse plasma, 10 μM, 37° C.; for half-life at 10 μM: both sexes, CD-1, mouse, plasma
Procedure: (§1) 5. Plasma and Metabolic Stability Assays Example compounds were dissolved in DMSO/H2O 90:10 to a final concentration of 10 mM for plasma stability determination and metabolic stability determination. The assays were conducted according to literature precedents (F. P. Guengerich, Analysis and Characterization of Enzymes; in: Principles and Methods of Toxicology, A. W. Hayes (Ed.) Raven Press: New York, 1989, 777-813; R. Singh et al., In vitro metabolism of a potent HIV-protease inhibitor (141W94) using rat, monkey and human liver S9, Rapid Commun. Mass Spectrom. 1996, 10, 1019-1026). Plasma Stability Assay Human plasma (Blutspendedienst SRK, Basel) and CD-1 mouse plasma (mixed gender pool >50 animals, Innovative Research, Calif., USA) are both sodium citrate stabilized. The assay is performed in triplicates at 10 μM compound concentration and 37° C. Samples are taken at 0, 15, 30, 60, 120 and 240 minutes and stopped by precipitation with 3 volumes of acetonitrile/formic acid 98:2 and shaking (2 minutes, 600 rpm) followed by filtration (−20 mm Hg). The filtrate is collected. The filtrate (100 μL) is evaporated and reconstituted in the suitable solvent (cf. Table 33) to be analyzed by HPLC/MS/MS. The resulting peak area counts are expressed in percent of the 0 value and used to determine the endpoint stability in % and the half life T in minutes. In order to monitor assay integrity the degradation of propantheline is assayed with every experimental set.

[2] = Plasma stability assay, human plasma; conditions: for Plasma Stability 240 min hum [% remain.]: human plasma, 10 μM, 37° C.; for half-life at 10 μM: human, plasma
Procedure: as §1

[3] = Metabolic stability assay, human liver microsomes; conditions: human microsomes, 10 μM, 37° C.; for half-life at 10 μM: both sexes, liver microsomes, 1 mg/ml protein, read-out: Metabolic Stability T ½ [min] hum
Procedure: (§2) 5. Plasma and Metabolic Stability Assays
(§3) Example compounds were dissolved in DMSO/H2O 90:10 to a final concentration of 10 mM for plasma stability determination and metabolic stability determination.
(§4) The assays were conducted according to literature precedents (F. P. Guengerich, Analysis and Characterization of Enzymes; in: Principles and Methods of Toxicology, A. W. Hayes (Ed.) Raven Press: New York, 1989, 777-813; R. Singh et al., In vitro metabolism of a potent HIV-protease inhibitor (141W94) using rat, monkey and human liver S9, Rapid Commun. Mass Spectrom. 1996, 10, 1019-1026).
(§5) Metabolic Stability Assay
(§6) Microsomes from a human 50 donor mixed gender pool and 1:1 mixtures of microsomes from CD-1 mouse single-gender pools are purchased from Celsis (Belgium). The enzymatic reaction is performed in a buffer containing an NADPH regeneration system and microsomes with the following end concentrations: 100 mM potassium phosphate buffer (all from Sigma), 1 mg/mL glucose-6-phosphate, 1 mg/mL β-nicotinamide adenine dinucleotide phosphate (NADP), 0.65 mg/mL magnesium chloride, 0.8 units/mL of glucose-6-phosphate dehydrogenase (prediluted with 5 mM citrate buffer), 10 μM compound and 1 mg/ml microsomal protein. Compounds are incubated at 37° C. in duplicates and samples are taken after 0, 5, 10, 20 and 60 minutes. After acetonitrile precipitation (3 volumes), shaking (2 minutes, 600 rpm) followed by centrifugation (10 minutes, 3200 g), the supernatant is dried reconstituted in the suitable solvent (cf. Table 33) and analyzed by HPLC/MS/MS. Metabolic turnover is expressed in % of the initial 0 minutes value and half life T½ (min) is calculated. Verapamil for human and propranolol for mouse are used as reference and are assayed with every experimental set.

[4] = Metabolic stability assay, CD-1 mouse microsomes; conditions: CD-1 mouse microsomes, 10 μM, 37° C.; for half-life at 10 μM: both sexes, 1 mg/ml protein, read-out: Metabolic Stability T ½ [min] mouse/(rat)
Procedure: as §2, §3, §4, §5, §6

| Structure (SMILES) | Plasma Stability 240 min mouse/(rat) [% remain.] [1] | half-life at 10 μM [1] | Plasma Stability 240 min hum [% remain.] [2] | half-life at 10 μM [2] | half-life at 10 μM [3] | Metabolic Stability 60 min hum [% remain.] [3] | Metabolic Stability 60 min mouse/(rat) [% remain.] [4] | half-life at 10 μM [4] |
| --- | --- | --- | --- | --- | --- | --- | --- | --- |
| COc1ccc2c(c1)-c1cccc(c1)C(=O)N(C)[C@H](C(=O)O)CCC(=O)N[C@H](C)CO2 [Ex. 42, (10R,15S)-4-methoxy-10,16-dimethyl-12,17-dioxo-8-oxa-11,16-diazatricyclo[16.3.1.0^2,7]docosa-1(22),2,4,6,18,20-hexaene-15-carboxylic acid] | 100 % remain. | > 4 h | 91 % remain. | > 4 h | > 60 min | 100 % remain. | 100 % remain. | > 60 min |
| COc1ccc2c(c1)-c1cccc(c1)C(=O)N(C)[C@H](C(N)=O)CCC(=O)N[C@H](C)CO2 [Ex. 43, (10R,15S)-4-methoxy-10,16-dimethyl-12,17-dioxo-8-oxa-11,16-diazatricyclo[16.3.1.0^2,7]docosa-1(22),2,4,6,18,20-hexaene-15-carboxamide] | 63 % remain. | > 4 h | 97 % remain. | > 4 h | > 60 min | 100 % remain. | 83 % remain. | > 60 min |
| CNC(=O)[C@@H]1CCC(=O)N[C@H](C)COc2ccc(OC)cc2-c2cccc(c2)C(=O)N1C [Ex. 44, (10R,15S)-4-methoxy-N,10,16-trimethyl-12,17-dioxo-8-oxa-11,16-diazatricyclo[16.3.1.0^2,7]docosa-1(22),2,4,6,18,20-hexaene-15-carboxamide] | 83 % remain. | > 4 h | 100 % remain. | > 4 h | > 60 min | 68 % remain. | 77 % remain. | > 60 min |
| COc1ccc2c(c1)-c1cccc(c1)C(=O)N(C)[C@H](C(=O)Nc1ccccc1)CCC(=O)N[C@H](C)CO2 [Ex. 45, (10R,15S)-4-methoxy-10,16-dimethyl-12,17-dioxo-N-phenyl-8-oxa-11,16-diazatricyclo[16.3.1.0^2,7]docosa-1(22),2,4,6,18,20-hexaene-15-carboxamide] | 46 % remain. | 3.17 h | 76 % remain. | > 4 h | > 60 min | 66 % remain. | 73 % remain. | > 60 min |
| COc1ccc2c(c1)-c1cccc(c1)C(=O)N(C)[C@H](C(=O)N1CCCC1)CCC(=O)N[C@H](C)CO2 [Ex. 46, (10R,15S)-4-methoxy-10,16-dimethyl-15-(1-pyrrolidinylcarbonyl)-8-oxa-11,16-diazatricyclo[16.3.1.0^2,7]docosa-1(22),2,4,6,18,20-hexaene-12,17-dione] | 78 % remain. | > 4 h | 100 % remain. | > 4 h | 32 min | 26 % remain. | 71 % remain. | > 60 min |
| COc1ccc2c(c1)-c1cccc(c1)C(=O)N(C)[C@H](C(=O)NCCN(C)C)CCC(=O)N[C@H](C)CO2 [Ex. 47, (10R,15S)-N-[2-(dimethylamino)ethyl]-4-methoxy-10,16-dimethyl-12,17-dioxo-8-oxa-11,16-diazatricyclo[16.3.1.0^2,7]docosa-1(22),2,4,6,18,20-hexaene-15-carboxamide] | 86 % remain. | > 4 h | 99 % remain. | > 4 h | > 60 min | 83 % remain. | 100 % remain. | > 60 min |
| COc1ccc2c(c1)-c1cccc(c1)C(=O)N(C)[C@H](C(=O)NCCCN)CCC(=O)N[C@H](C)CO2 [Ex. 49, (10R,15S)-N-(3-aminopropyl)-4-methoxy-10,16-dimethyl-12,17-dioxo-8-oxa-11,16-diazatricyclo[16.3.1.0^2,7]docosa-1(22),2,4,6,18,20-hexaene-15-carboxamide] | 76 % remain. | > 4 h | 95 % remain. | > 4 h | > 60 min | 100 % remain. | 92 % remain. | > 60 min |
| COCCNC(=O)[C@@H]1CCC(=O)N[C@H](C)COc2ccc(OC)cc2-c2cccc(c2)C(=O)N1C [Ex. 51, (10R,15S)-4-methoxy-N-(2-methoxyethyl)-10,16-dimethyl-12,17-dioxo-8-oxa-11,16-diazatricyclo[16.3.1.0^2,7]docosa-1(22),2,4,6,18,20-hexaene-15-carboxamide] | 80 % remain. | > 4 h | 100 % remain. | > 4 h | > 60 min | 71 % remain. | 69 % remain. | > 60 min |
| COc1ccc2c(c1)-c1cccc(c1)C(=O)N(C)[C@H](C(=O)NC1CC1)CCC(=O)N[C@H](C)CO2 [Ex. 52, (10R,15S)-N-cyclopropyl-4-methoxy-10,16-dimethyl-12,17-dioxo-8-oxa-11,16-diazatricyclo[16.3.1.0^2,7]docosa-1(22),2,4,6,18,20-hexaene-15-carboxamide] | 95 % remain. | > 4 h | 99 % remain. | > 4 h | > 60 min | 100 % remain. | 78 % remain. | > 60 min |
| COc1ccc2c(c1)-c1cccc(c1)C(=O)N(C)[C@H](C(=O)NCC(C)C)CCC(=O)N[C@H](C)CO2 [Ex. 54, (10R,15S)-N-isobutyl-4-methoxy-10,16-dimethyl-12,17-dioxo-8-oxa-11,16-diazatricyclo[16.3.1.0^2,7]docosa-1(22),2,4,6,18,20-hexaene-15-carboxamide] | 100 % remain. | > 4 h | 100 % remain. | > 4 h | > 60 min | 60 % remain. | 82 % remain. | > 60 min |
| C[C@H]1COc2cccc(c2)-c2cccc(c2)C(=O)N(C)[C@H](C(=O)NCc2cn(C)cn2)CCC(=O)N1 [Ex. 88, (9S,14S)-9,15-dimethyl-N-[(1-methyl-1H-imidazol-4-yl)methyl]-11,16-dioxo-7-oxa-10,15-diazatricyclo[15.3.1.1^2,6]docosa-1(21),2(22),3,5,17,19-hexaene-14-carboxamide] | 81 % remain. | > 4 h |  |  | 56 min | 49 % remain. | 62 % remain. | > 60 min |
